Test results: ChEMBL document CHEMBL3822397, “Synthesis and bioevaluation of novel benzodipyranone derivatives as P-glycoprotein inhibitors for multidrug resistance reversal agents” (Eur J Med Chem, 2016)

Assays:
[1] = target: T1, ATP-dependent translocase ABCB1 (Homo sapiens, UniProt P08183); test: Inhibition of full length human ABCB1 expressed in Flp-In-293 cells at 5 uM incubated for 30 mins by calcein-AM uptake assay relative to control; assay type: cell-based; details: 0.5 h
[2] = target: T1, ATP-dependent translocase ABCB1; test: Inhibition of full length human ABCB1 expressed in Flp-In-293 cells at 2.5 uM incubated for 30 mins by calcein-AM uptake assay relative to control; assay type: cell-based; details: 0.5 h

T1 sequence (P08183 whole entry): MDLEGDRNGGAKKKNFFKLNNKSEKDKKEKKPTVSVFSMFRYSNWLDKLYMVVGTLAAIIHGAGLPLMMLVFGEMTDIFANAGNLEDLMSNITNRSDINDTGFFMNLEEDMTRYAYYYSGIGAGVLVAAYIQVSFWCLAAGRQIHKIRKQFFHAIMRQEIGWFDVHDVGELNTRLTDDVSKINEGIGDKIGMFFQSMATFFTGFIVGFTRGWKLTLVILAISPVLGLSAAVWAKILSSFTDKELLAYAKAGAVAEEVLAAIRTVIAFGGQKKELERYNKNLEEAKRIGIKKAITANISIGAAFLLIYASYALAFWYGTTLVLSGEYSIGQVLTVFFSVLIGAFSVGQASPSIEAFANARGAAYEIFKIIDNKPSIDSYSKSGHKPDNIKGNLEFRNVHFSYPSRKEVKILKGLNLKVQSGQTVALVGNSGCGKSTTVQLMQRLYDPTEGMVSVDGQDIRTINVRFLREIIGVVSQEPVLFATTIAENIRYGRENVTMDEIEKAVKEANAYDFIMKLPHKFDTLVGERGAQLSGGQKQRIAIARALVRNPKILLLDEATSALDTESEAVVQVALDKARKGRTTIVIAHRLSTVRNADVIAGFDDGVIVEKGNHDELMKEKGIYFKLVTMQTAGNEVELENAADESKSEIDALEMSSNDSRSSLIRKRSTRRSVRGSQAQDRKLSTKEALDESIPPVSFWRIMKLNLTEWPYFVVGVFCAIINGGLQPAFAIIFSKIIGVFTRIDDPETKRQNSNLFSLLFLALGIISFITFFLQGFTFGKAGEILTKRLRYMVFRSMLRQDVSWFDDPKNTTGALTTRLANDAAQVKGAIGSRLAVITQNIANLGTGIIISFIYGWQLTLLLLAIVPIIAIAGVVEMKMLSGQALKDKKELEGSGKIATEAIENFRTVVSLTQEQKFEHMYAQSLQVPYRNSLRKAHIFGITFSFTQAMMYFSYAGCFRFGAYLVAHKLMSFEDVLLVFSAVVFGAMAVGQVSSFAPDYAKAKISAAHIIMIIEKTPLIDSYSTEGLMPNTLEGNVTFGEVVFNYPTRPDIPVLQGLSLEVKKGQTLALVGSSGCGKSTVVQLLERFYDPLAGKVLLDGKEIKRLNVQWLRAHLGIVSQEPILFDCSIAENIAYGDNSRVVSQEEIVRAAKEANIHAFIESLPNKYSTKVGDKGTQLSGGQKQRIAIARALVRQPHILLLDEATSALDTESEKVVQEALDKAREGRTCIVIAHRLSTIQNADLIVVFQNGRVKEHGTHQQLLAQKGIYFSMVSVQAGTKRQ

| Structure (SMILES) | fold change (FC) [1] | fold change (FC) [2] |
| --- | --- | --- |
| Cc1cccc(-c2coc3cc4occ(-c5cccc(C)c5)c(=O)c4c(O)c3c2=O)c1 | 0.93 | 0.86 |
| Cc1ccccc1-c1coc2cc3occ(-c4ccccc4C)c(=O)c3c(O)c2c1=O | 0.81 | 0.87 |
| O=c1c(-c2cccc(F)c2)coc2c1c(O)cc1occ(-c3cccc(F)c3)c(=O)c12 | 0.82 | 0.96 |
| O=c1c(-c2cccc3ccccc23)coc2c1c(O)cc1occ(-c3cccc4ccccc34)c(=O)c12 | 0.85 | 0.87 |
| Cc1ccc(-c2coc3c(c(O)cc4occ(-c5ccc(C)cc5)c(=O)c43)c2=O)cc1 | 2.04 | 1.58 |
| COc1ccc(-c2coc3cc4occ(-c5ccc(OC)c(OC)c5)c(=O)c4c(O)c3c2=O)cc1OC | 0.86 | 0.81 |
| O=c1c(-c2cccc(C(F)(F)F)c2)coc2c1c(O)cc1occ(-c3cccc(C(F)(F)F)c3)c(=O)c12 | 1.15 | 1.1 |
| O=c1c(-c2ccc(OC(F)(F)F)cc2)coc2c1c(O)cc1occ(-c3ccc(OC(F)(F)F)cc3)c(=O)c12 | 1.04 | 0.97 |
| O=c1c(-c2c(F)cccc2Cl)coc2cc3occ(-c4c(F)cccc4Cl)c(=O)c3c(O)c12 | 1.06 | 0.95 |
| O=c1c(-c2ccc(F)cc2)coc2c1c(O)cc1occ(-c3ccc(F)cc3)c(=O)c12 | 0.84 | 0.92 |
| O=c1c(-c2cccs2)coc2c1c(O)cc1occ(-c3cccs3)c(=O)c12 | 0.83 | 0.88 |
| O=c1c(-c2ccc([N+](=O)[O-])cc2)coc2c1c(O)cc1occ(-c3ccc([N+](=O)[O-])cc3)c(=O)c12 | 0.75 | 0.88 |
| O=c1c(-c2ccc3c(c2)OCO3)coc2c1c(O)cc1occ(-c3ccc4c(c3)OCO4)c(=O)c12 | 0.7 | 0.72 |
| O=c1c(-c2cccc(Cl)c2)coc2cc3occ(-c4cccc(Cl)c4)c(=O)c3c(O)c12 | 0.87 | 0.5 |
| O=c1c(C2CC2)coc2cc3occ(C4CC4)c(=O)c3c(O)c12 | 0.86 | 0.86 |
| COc1cccc(-c2coc3cc4occ(-c5cccc(OC)c5)c(=O)c4c(O)c3c2=O)c1 | 0.85 | 1 |
| O=c1c(-c2cccc(O)c2)coc2cc3occ(-c4cccc(O)c4)c(=O)c3c(O)c12 | 1.19 | 1.33 |
| O=c1c(-c2c(F)cccc2Cl)coc2c1c(O)cc1occ(-c3c(F)cccc3Cl)c(=O)c12 | 0.64 | 0.66 |
| COc1ccccc1-c1coc2cc3occ(-c4ccccc4OC)c(=O)c3c(O)c2c1=O | 0.82 | 0.76 |
| COc1cc(-c2coc3cc4occ(-c5cc(OC)c(OC)c(OC)c5)c(=O)c4c(O)c3c2=O)cc(OC)c1OC | 0.72 | 0.8 |
| O=c1c(-c2ccc(Cl)cc2)coc2cc3occ(-c4ccc(Cl)cc4)c(=O)c3c(O)c12 | 1.08 | 1.06 |
| O=c1c(-c2ccccc2C(F)(F)F)coc2cc3occ(-c4ccccc4C(F)(F)F)c(=O)c3c(O)c12 | 1.36 | 1.32 |
| O=c1c(-c2ccccc2Cl)coc2c1c(O)cc1occ(-c3ccccc3Cl)c(=O)c12 | 1.09 | 0.98 |
| Cc1ccc(-c2coc3cc4occ(-c5ccc(C)cc5)c(=O)c4c(O)c3c2=O)cc1 | 1.81 | 1.62 |
| O=c1c(-c2cccc(O)c2)coc2c1c(O)cc1occ(-c3cccc(O)c3)c(=O)c12 | 0.99 | 1.01 |

| Structure (SMILES) | fold change (FC) [1] | fold change (FC) [2] |
| --- | --- | --- |
| O=c1c(-c2cccc(C(F)(F)F)c2)coc2cc3occ(-c4cccc(C(F)(F)F)c4)c(=O)c3c(O)c12 | 1.18 | 1.27 |
| COc1ccccc1-c1coc2c(c(O)cc3occ(-c4ccccc4OC)c(=O)c32)c1=O | 1.56 | 1.4 |
| O=c1c(-c2ccc(Cl)cc2)coc2c1c(O)cc1occ(-c3ccc(Cl)cc3)c(=O)c12 | 0.82 | 0.76 |
| O=c1c(-c2ccccc2Cl)coc2cc3occ(-c4ccccc4Cl)c(=O)c3c(O)c12 | 0.85 | 0.71 |
| O=c1c(C2CC2)coc2c1c(O)cc1occ(C3CC3)c(=O)c12 | 0.63 | 0.8 |
| O=c1c(-c2cccs2)coc2cc3occ(-c4cccs4)c(=O)c3c(O)c12 | 0.67 | 0.61 |
| COc1cc(-c2coc3c(c(O)cc4occ(-c5cc(OC)c(OC)c(OC)c5)c(=O)c43)c2=O)cc(OC)c1OC | 0.75 | 0.76 |
| O=c1c(-c2ccccc2C(F)(F)F)coc2c1c(O)cc1occ(-c3ccccc3C(F)(F)F)c(=O)c12 | 0.81 | 0.76 |
| Cc1ccccc1-c1coc2c(c(O)cc3occ(-c4ccccc4C)c(=O)c32)c1=O | 1.53 | 1.15 |
| O=c1c(-c2ccccc2[N+](=O)[O-])coc2cc3occ(-c4ccccc4[N+](=O)[O-])c(=O)c3c(O)c12 | 0.83 | 0.85 |
| O=c1c(-c2ccccc2F)coc2cc3occ(-c4ccccc4F)c(=O)c3c(O)c12 | 0.89 | 0.92 |
| O=c1c(-c2ccc(Cl)c(Cl)c2)coc2c1c(O)cc1occ(-c3ccc(Cl)c(Cl)c3)c(=O)c12 | 0.81 | 0.8 |
| O=c1c(-c2ccc(OC(F)(F)F)cc2)coc2cc3occ(-c4ccc(OC(F)(F)F)cc4)c(=O)c3c(O)c12 | 0.63 | 0.62 |
| O=c1c(-c2cccc(Cl)c2)coc2c1c(O)cc1occ(-c3cccc(Cl)c3)c(=O)c12 | 0.82 | 0.83 |
| O=c1c(-c2ccc(C(F)(F)F)cc2)coc2c1c(O)cc1occ(-c3ccc(C(F)(F)F)cc3)c(=O)c12 | 0.9 | 0.87 |
| O=c1c(-c2ccccc2F)coc2c1c(O)cc1occ(-c3ccccc3F)c(=O)c12 | 0.67 | 0.76 |
| COc1cccc(-c2coc3c(c(O)cc4occ(-c5cccc(OC)c5)c(=O)c43)c2=O)c1 | 1.28 | 1.19 |
| O=c1c(-c2ccccc2[N+](=O)[O-])coc2c1c(O)cc1occ(-c3ccccc3[N+](=O)[O-])c(=O)c12 | 1.03 | 0.98 |
| O=c1c(-c2ccc(F)cc2)coc2cc3occ(-c4ccc(F)cc4)c(=O)c3c(O)c12 | 1.3 | 0.85 |
| O=c1c(-c2ccccc2)coc2cc3occ(-c4ccccc4)c(=O)c3c(O)c12 | 0.9 | 1.04 |
| COc1ccc(CCN(C)CCCC(C#N)(c2ccc(OC)c(OC)c2)C(C)C)cc1OC (centres undefined) [VERAPAMIL] | 2.39 | – |
| O=c1c(-c2cccc(F)c2)coc2cc3occ(-c4cccc(F)c4)c(=O)c3c(O)c12 | 0.75 | 0.6 |
| O=c1c(-c2ccccc2)coc2c1c(O)cc1occ(-c3ccccc3)c(=O)c12 | 1.29 | 1.04 |
| O=c1c(-c2cccc3ccccc23)coc2cc3occ(-c4cccc5ccccc45)c(=O)c3c(O)c12 | 0.64 | 0.72 |
| COc1ccc(-c2coc3cc4occ(-c5ccc(OC)cc5)c(=O)c4c(O)c3c2=O)cc1 | 1.3 | 0.87 |
